Laboratory results taken from patent publication US20100166897A1, “COMBINATION OF MONOSACCHARIDES WITH ANTIOXIDANTS AND USE THEREOF” (L'OREAL, priority 2008, published 2010).

Legend:
[1] = test system: type I procollagen; test: Synthesis of procollagen 1 in reconstructed skin (indirect immunofluorescence); format: cell-based, human
Description: Conventional detection via indirect immunofluorescence of type I procollagen in the dermis of the reconstructed skin was also performed on other series of frozen sections (anti-procoll 1 antibody (MAB 1912 Millipore)+FTIC-coupled conjugate (112-095-068 Jackson Immunoresearch)). In order to obtain bearings within the cutaneous architecture during the microscopic examination of the sections, the cell nuclei of the keratinocytes and fibroblasts are localized by staining them with propidium iodide, as described above. Three frozen sections are prepared at random on each reconstructed skin and on each section, and two microscopic fields (25× objective lens) are analysed is by fluorescence microscopy and photographed. The levels of fluorescence proportional to the amount of type I procollagen are compared between the control skin and the skin treated with rhamnose.

[2] = test system: dermal fibroblasts of the reconstructed skin; test: Proliferation of fibroblasts in whole reconstructed skin (propidium iodide count on frozen sections); format: cell-based, human; details: 5 mM rhamnose; within 48 hours of treatment
Source text: Rhamnose was studied on a model of whole reconstructed skin in order to measure its anti-ageing efficacy on the dermal compartment.
Briefly, the model of reconstructed skin used is that described by Bell et al. (Bell E. et al., The reconstitution of living skin, J. Invest. Dermatol., 1983, July; 81): it includes a dermal equivalent on which is reconstructed a multistratified epidermis; the dermal equivalent is manufactured from acid-soluble collagen, culture medium containing serum and normal adult human fibroblasts. After 5 days of shrinkage, this equivalent is inoculated with keratinocytes and then cultured for 6 days in immersion and for 7 days in emersion in order to obtain a multistratified and differentiated epidermis having a horny layer.
The reconstructed skin is treated with 5 mM rhamnose for 2 days and 5 days in the culture medium; after the treatment, the reconstructed skins are included in Tissue Tek in order to produce frozen sections 7 μm thick with a cryostat. […] Three frozen sections are prepared at random on each reconstructed skin; on each section, two microscopic fields (25× objective lens) are analysed by fluorescence microscopy and photographed. The dermal fibroblasts are thus counted for each reconstructed skin on six images in total representing the six microscopic fields considered. […]

[3] = test system: keratinocytes (HaCat line); test: Proliferation of keratinocytes (HaCat line) in medium deficient in growth factors; Cyquant, Nile red and XTT probes; format: cell-based
Description: The keratinocytes (HaCat line) are cultured under two conditions: whole defined culture medium (standard condition) and culture medium deficient in growth factors. This deficient medium gives rise to a controlled delay in cell proliferation. Under these conditions, it is then possible to measure the effects of compounds capable of compensating for the deficiency in growth factors of the culture medium and thus of relaunching the cell multiplication and/or of stimulating cell metabolism.
The keratinocyte proliferation is measured by means of three markers on the same cell population: the level of DNA, which is proportional to the number of cells (Cyquant probe), the level of constituent polar lipids of cell membranes (Nile red probe) and the mitochondrial respiration, which reflects the general cell metabolism (XTT probe).

For `C[C@H](O)[C@H](O)[C@@H](O)[C@@H](O)C=O` [rhamnose], the “synthesis of type I procollagen by the fibroblasts” value ([1]; 1 mM rhamnose for 120 hours, reconstructed skin) was “greatly stimulated”, the “green fluorescence (proportional to amount of type I procollagen) compared with control skin” value ([1]; 1 mM rhamnose for 120 hours, reconstructed skin section) was “marked increase” and the “procollagen 1 synthesis” value ([1]; 1 mM, reconstructed skin) was “stimulation of procollagen 1 synthesis”. For the same compound, the “procollagen 1 synthesis” value ([1]; 5 mM, reconstructed skin) was “stimulation of procollagen 1 synthesis”, the “growth of the dermal fibroblasts of the reconstructed skin” value [2] was “stimulation of growth” and the “number of cells compared with an untreated control” value ([3]; keratinocytes cultured in medium depleted in growth factor) was “higher number of cells”. The keratinocyte proliferation ([3]; keratinocytes cultured in medium depleted in growth factors) was “activate keratinocyte proliferation”.
